Source: paper PMC9299836 (eLife, 2022)
Values joined by “and” are separate entries in the source; they are usually repeats but may differ in a detail not shown here. Equal entries are not always repeated.

Columns and labels:
mGluR2 [1] = target: mGluR2 (Mus musculus, UniProt Q14BI2, A548F); assay: Live-cell FRET, azi-CRD (cysteine-rich domain) sensor in HEK293T cells; conditions: for Mean normalized FRET response, azi-CRD PAM DRC: glutamate + 5μM LY487379, maximal response normalized to 1mM glutamate
Sequence of mGluR2 (Mus musculus, UniProt Q14BI2, A548F) (Q14BI2 19-872 A548F): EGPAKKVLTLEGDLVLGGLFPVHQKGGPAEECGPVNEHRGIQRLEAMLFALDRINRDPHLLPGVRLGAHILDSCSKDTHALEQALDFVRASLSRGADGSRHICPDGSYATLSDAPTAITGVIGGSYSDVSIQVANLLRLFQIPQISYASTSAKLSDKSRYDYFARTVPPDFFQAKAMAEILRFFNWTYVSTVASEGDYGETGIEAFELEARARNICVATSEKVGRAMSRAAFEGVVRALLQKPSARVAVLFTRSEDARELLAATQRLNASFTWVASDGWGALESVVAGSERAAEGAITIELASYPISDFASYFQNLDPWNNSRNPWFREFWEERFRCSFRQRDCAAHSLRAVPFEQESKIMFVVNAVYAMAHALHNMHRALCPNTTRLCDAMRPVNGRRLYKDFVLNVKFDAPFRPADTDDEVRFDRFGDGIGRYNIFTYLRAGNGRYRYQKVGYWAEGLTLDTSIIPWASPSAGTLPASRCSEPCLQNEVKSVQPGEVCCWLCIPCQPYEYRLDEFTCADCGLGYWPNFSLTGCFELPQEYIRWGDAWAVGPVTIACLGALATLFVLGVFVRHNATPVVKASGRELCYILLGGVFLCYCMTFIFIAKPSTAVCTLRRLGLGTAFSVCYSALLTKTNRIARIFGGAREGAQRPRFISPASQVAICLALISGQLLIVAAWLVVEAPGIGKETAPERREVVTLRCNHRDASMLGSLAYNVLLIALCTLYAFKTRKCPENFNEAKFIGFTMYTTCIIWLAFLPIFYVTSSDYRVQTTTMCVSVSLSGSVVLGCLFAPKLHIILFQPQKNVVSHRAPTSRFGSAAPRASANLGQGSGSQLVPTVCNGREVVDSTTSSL

mGluR2 [2] = target: T1, mGluR2 (Mus musculus, UniProt Q14BI2); assay: Live-cell FRET, SNAP-m2 (VFT domain) inter-subunit sensor in HEK293T cells; conditions: for SNAP-m2 FRET response (PAM DRC) / SNAP-m2 FRET response (PAM DRC), Mean: Glutamate + 5μM LY487379; for SNAP-m2 FRET response (PAM DRC): individual cells, normalized to 1mM glutamate;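 for all read-outs here: apparent FRET efficiency from whole-membrane ROIs of single cells, corrected for donor bleed-through and background, ΔFRET as treatment minus pretreatment signal, recorded at room temperature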
T1 sequence (Q14BI2 19-872): as the sequence (Q14BI2 19-872 A548F) above, with F530A counted along it

mGluR2 [3] = target: mGluR2 (Mus musculus, UniProt Q14BI2, INS715F); assay: Live-cell FRET, azi-ECL2 (7TM domain, extracellular loop 2) sensor in HEK293T cells; conditions: for Mean normalized azi-ECL2 FRET response: glutamate + 5μM modulator, maximal response normalized to 1mM glutamate;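 for all read-outs here: Cy3/Cy5 click-labeled sensor, whole-membrane ROIs per cell, apparent FRET after bleed-through correction, ΔFRET as treatment minus pre-treatment signal, at room temperature, at least three biological replicates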
Sequence of mGluR2 (Mus musculus, UniProt Q14BI2, INS715F) (Q14BI2 with tags, fused parts or gaps INS715F): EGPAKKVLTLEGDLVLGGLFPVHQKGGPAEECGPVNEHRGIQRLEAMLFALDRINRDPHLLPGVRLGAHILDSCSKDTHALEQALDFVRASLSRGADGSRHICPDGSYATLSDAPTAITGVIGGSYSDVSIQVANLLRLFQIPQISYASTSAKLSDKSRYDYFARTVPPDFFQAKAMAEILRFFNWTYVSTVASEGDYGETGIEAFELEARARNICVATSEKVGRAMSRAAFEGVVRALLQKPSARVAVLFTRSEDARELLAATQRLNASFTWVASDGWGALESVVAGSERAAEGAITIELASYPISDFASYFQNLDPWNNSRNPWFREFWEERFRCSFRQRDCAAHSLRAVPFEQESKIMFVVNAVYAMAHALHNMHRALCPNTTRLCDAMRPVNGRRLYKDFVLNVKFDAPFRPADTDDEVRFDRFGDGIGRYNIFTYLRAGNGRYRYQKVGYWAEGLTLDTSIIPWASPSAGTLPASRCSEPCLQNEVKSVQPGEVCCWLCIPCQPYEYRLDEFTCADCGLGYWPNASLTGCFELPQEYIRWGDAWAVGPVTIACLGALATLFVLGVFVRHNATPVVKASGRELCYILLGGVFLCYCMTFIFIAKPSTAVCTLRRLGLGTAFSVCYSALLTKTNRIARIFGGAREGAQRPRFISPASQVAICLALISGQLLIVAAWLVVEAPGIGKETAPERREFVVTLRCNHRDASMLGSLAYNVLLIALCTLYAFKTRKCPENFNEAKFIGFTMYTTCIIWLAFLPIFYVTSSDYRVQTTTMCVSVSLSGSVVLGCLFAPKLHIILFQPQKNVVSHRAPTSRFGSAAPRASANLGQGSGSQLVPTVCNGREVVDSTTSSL

mGluR2 [4] = target: T1, mGluR2; assay: Functional calcium imaging, SNAP-mGluR2 (no FLAG-tag) with chimeric G protein Gqo5 in HEK293T cells; assay type: cell-based; parameters: Full length mGluR2 construct with an amber codon (TAG) mutation of amino acid A548 (azi-CRD) or N-terminal SNAP-tag (SNAP-mGluR2); host or cells: HEK293T; conditions: modulator alone; precluded analysis of glutamate potency and efficacy
[5] = 5μM LY487379, ([1 mM glutamate + modulator] - [1 mM glutamate]) × 100

COc1ccccc1Oc1ccc(N(Cc2cccnc2)S(=O)(=O)CC(F)(F)F)cc1 [LY487379, N -(4-(2-Methoxyphenoxy)phenyl)-N -(2,2,2− trifluoroethylsulfonyl)pyrid-3-ylmethylamine]
azi-CRD - ΔEfficacy, Mean ΔEfficacy (mGluR2 [1]; [5]): 56.4462
azi-CRD - ΔEfficacy, individual cell responses (mGluR2 [1]; 5μM LY487379, single cells): 81.7927 and 91.1647 and 102.83 and 105.34 and 78.0041 and 66.6667 and 72.6804 and 69.5464 and 76.2911 and 41.9214 and 42.0188 and 53.8462 and 0 and 21.4575 and 34.4595 and 42.2449 and 30.2041 and 33.2258 and 28.7834
Hill slope of glutamate titration (mGluR2 [1]; azi-CRD sensor, + 5 μM modulator): 0.91
Mean max response (normalized max ΔFRET) (mGluR2 [1]; azi-CRD, 1 mM glutamate + 5 μM modulator, normalized to 1 mM glutamate): 1.56
Mean ΔPotency (mGluR2 [1]; azi-CRD, 5μM modulator, (([modulator + glutamate]EC50 – [glutamate] EC50)/[glutamate] EC50) × 100): -61.3748
ΔPotency, individual cell (mGluR2 [1]; azi-CRD, 5μM modulator, calculated from individual cell responses): -86.3622 and -82.4274 and -82.7128 and -78.2764 and -89.1123 and -88.282 and -87.867 and -88.628 and -87.1232 and -72.2401 and -70.8565 and -64.63 and -55.982 and -66.7055 and -27.5303 and -19.9202 and -46.4693 and -21.7362 and -27.2709 and -11.7911 and -36.6107 and -57.7116
Mean normalized FRET response, azi-CRD PAM DRC (mGluR2 [1]; log[Glutamate] (M) -3): 1.564
Mean normalized FRET response, azi-CRD PAM DRC (mGluR2 [1]; log[Glutamate] (M) -4.1549): 1.506
Mean normalized FRET response, azi-CRD PAM DRC (mGluR2 [1]; log[Glutamate] (M) -4.52288): 1.431
Mean normalized FRET response, azi-CRD PAM DRC (mGluR2 [1]; log[Glutamate] (M) -5): 1.21
Mean normalized FRET response, azi-CRD PAM DRC (mGluR2 [1]; log[Glutamate] (M) -5.39794): 0.9243
Mean normalized FRET response, azi-CRD PAM DRC (mGluR2 [1]; log[Glutamate] (M) -5.82391): 0.548
Mean normalized FRET response, azi-CRD PAM DRC (mGluR2 [1]; log[Glutamate] (M) -6.52288): 0.2035
Mean normalized FRET response, azi-CRD PAM DRC (mGluR2 [1]; log[Glutamate] (M) -7): 0.1104
Mean normalized FRET response, azi-CRD PAM DRC (mGluR2 [1]; log[Glutamate] (M) -7.30103): 0.08348
Mean normalized FRET response, azi-CRD PAM DRC (mGluR2 [1]; log[Glutamate] (M) -7.69897): 0
SNAP-m2 - ΔEfficacy, Mean ΔEfficacy (mGluR2 [2]; [5]): 7.324
SNAP-m2 FRET response (PAM DRC) (mGluR2 [2]; log[Glutamate] (M) -3): -1.073
SNAP-m2 FRET response (PAM DRC), Mean (mGluR2 [2]; log[Glutamate] (M) -3): -1.073
SNAP-m2 FRET response (PAM DRC) (mGluR2 [2]; log[Glutamate] (M) -4.1549): -1.073 and -1.043 and -1.045 and -1.173
SNAP-m2 FRET response (PAM DRC), Mean (mGluR2 [2]; log[Glutamate] (M) -4.1549): -1.083
SNAP-m2 FRET response (PAM DRC) (mGluR2 [2]; log[Glutamate] (M) -4.52288): -1.073 and -1.028 and -1.065 and -1.205
SNAP-m2 FRET response (PAM DRC), Mean (mGluR2 [2]; log[Glutamate] (M) -4.52288): -1.093
SNAP-m2 FRET response (PAM DRC) (mGluR2 [2]; log[Glutamate] (M) -5): -0.9102 and -0.7407 and -0.8397 and -1.14
SNAP-m2 FRET response (PAM DRC), Mean (mGluR2 [2]; log[Glutamate] (M) -5): -0.9075
SNAP-m2 FRET response (PAM DRC) (mGluR2 [2]; log[Glutamate] (M) -5.39794): -0.5434 and -0.4233 and -0.4506 and -0.9619
SNAP-m2 FRET response (PAM DRC), Mean (mGluR2 [2]; log[Glutamate] (M) -5.39794): -0.5948
SNAP-m2 FRET response (PAM DRC) (mGluR2 [2]; log[Glutamate] (M) -5.82391): -0.2581 and -0.136 and -0.1638 and -0.657
SNAP-m2 FRET response (PAM DRC), Mean (mGluR2 [2]; log[Glutamate] (M) -5.82391): -0.3038
SNAP-m2 FRET response (PAM DRC) (mGluR2 [2]; log[Glutamate] (M) -6.52288): -0.05434 and 0 and -0.02048 and -0.1132
SNAP-m2 FRET response (PAM DRC), Mean (mGluR2 [2]; log[Glutamate] (M) -6.52288): -0.047
SNAP-m2 FRET response (PAM DRC) (mGluR2 [2]; log[Glutamate] (M) -7): 0
SNAP-m2 FRET response (PAM DRC), Mean (mGluR2 [2]; log[Glutamate] (M) -7): 0
SNAP-m2 FRET response (PAM DRC) (mGluR2 [2]; log[Glutamate] (M) -7.30103): 0
SNAP-m2 FRET response (PAM DRC), Mean (mGluR2 [2]; log[Glutamate] (M) -7.30103): 0
SNAP-m2 FRET response (PAM DRC) (mGluR2 [2]; log[Glutamate] (M) -7.69897): 0
SNAP-m2 FRET response (PAM DRC), Mean (mGluR2 [2]; log[Glutamate] (M) -7.69897): 0
Mean max response (normalized max ΔFRET) (mGluR2 [2]; SNAP-m2, 1 mM glutamate + 5 μM modulator, normalized to 1 mM glutamate): 1.07
Mean ΔPotency (mGluR2 [2]; SNAP-m2, 5μM modulator, (([modulator + glutamate]EC50 – [glutamate] EC50)/[glutamate] EC50) × 100): -67.8391
Mean ΔEfficacy (mGluR2 [2]; SNAP-m2, 5μM modulator, ([1 mM glutamate + modulator] - [1 mM glutamate]) × 100): 7.324
Hill slope of glutamate titration (mGluR2 [2]; SNAP-m2 sensor, + 5 μM modulator): –1.43
azi-ECL2 - ΔEfficacy, Mean ΔEfficacy (mGluR2 [3]; [5]): 24.615
Mean ΔPotency (mGluR2 [3]; 5μM modulator, (([modulator + glutamate]EC50 – [glutamate] EC50)/[glutamate] EC50) × 100): -30.8994
ΔPotency, individual cell responses (mGluR2 [3]; 5μM modulator, single cells, (([modulator + glutamate]EC50 – [glutamate] EC50)/[glutamate] EC50) × 100): -50.558 and -25.4476 and -23.8904 and -47.6382 and -34.9857 and -54.4511 and -26.0316 and -30.3706 and -10.8251 and 8.313 and -4.368 and -31.1486 and -23.7197 and -38.0027 and -24.5685 and -37.4665 and -50.1273 and -31.7846 and -24.8874 and -46.4706
ΔEfficacy, individual cell responses (mGluR2 [3]; 5μM modulator, single cells, ([1 mM glutamate + modulator] - [1 mM glutamate]) × 100): 52.1008 and 4.706 and 3.279 and -3.644 and 40.8403 and 19.2658 and 55.7571
Mean max response (normalized max ΔFRET) (mGluR2 [3]; azi-ECL2, 1 mM glutamate + 5 μM modulator, normalized to 1 mM glutamate): 1.25
Hill slope of glutamate titration (mGluR2 [3]; azi-ECL2 sensor, + 5 μM modulator): 0.98
Live-cell FRET max response normalized to 1mM glutamate (mGluR2 [3]; azi-ECL2 sensor, Glutamate + 5μM LY487379, individual values (N=7)): 1.4084 and 1.193 and 1.558 and 1.521 and 1.047 and 1.033 and 0.9636
Mean normalized azi-ECL2 FRET response (mGluR2 [3]; log[Glutamate] (M) -3): 1.246
Mean normalized azi-ECL2 FRET response (mGluR2 [3]; log[Glutamate] (M) -4.1549): 1.162
Mean normalized azi-ECL2 FRET response (mGluR2 [3]; log[Glutamate] (M) -4.52288): 1.05
Mean normalized azi-ECL2 FRET response (mGluR2 [3]; log[Glutamate] (M) -5): 0.9021
Mean normalized azi-ECL2 FRET response (mGluR2 [3]; log[Glutamate] (M) -5.39794): 0.6628
Mean normalized azi-ECL2 FRET response (mGluR2 [3]; log[Glutamate] (M) -5.82391): 0.3586
Mean normalized azi-ECL2 FRET response (mGluR2 [3]; log[Glutamate] (M) -6.52288): 0.0516
Mean normalized azi-ECL2 FRET response (mGluR2 [3]; log[Glutamate] (M) -7): 0.00565
Mean normalized azi-ECL2 FRET response (mGluR2 [3]; log[Glutamate] (M) -7.30103): 0
Mean normalized azi-ECL2 FRET response (mGluR2 [3]; log[Glutamate] (M) -7.69897): 0
Effect of modulator itself on intracellular calcium flux (mGluR2 [4]): Direct activation of mGluR2
